According to ChEMBL document CHEMBL5252621, “Effective Combination Therapies for the Treatment of HER2 Cancer” (2023):

Key:
[1] = tested on: HCC1954; experiment: Antitumor activity against human HCC1954 cells xenografted in NCR nude mouse model assessed as tumor growth inhibition at 25 mg/kg via oral gavage administered for 28 days by caliper method; assay type: functional; conditions: HCC1954, 672 h, time 28 day, read-out: TGI
[2] = tested on: HCC1954; experiment: Antitumor activity against human HCC1954 cells xenografted in NCR nude mouse model assessed as tumor growth inhibition at 25 mg/kg via oral gavage administered for 28 days in presence of trastuzumab/pertuzumab by caliper method; assay type: functional; conditions: HCC1954, 672 h, time 28 day, read-out: TGI

C[C@H](Nc1ccc2c(c1)OCCn1cc(N3C(=O)OC[C@H]3C(F)F)nc1-2)C(N)=O [INAVOLISIB]
inhibition in vivo at 25 mg/kg [1]: 122%
inhibition in vivo at 25 mg/kg [2]: 148%
